Experimental findings from patent publication US20190248834A1, “ENDOMORPHIN-2, TETRAPEPTIDE DERIVATIVES THEREOF, AND USES THEREOF” (priority 2016, published 2019) are described below.

Non-standard residues stand in square brackets, D forms with d. pGlu = O=C1CC[C@@H](C(=O)O)N1

Holding throughout (assay type): in vivo, human
The subject of data set [1] is mechanically induced skin pain. Kind of data set: Example 91: experimentally induced skin pain (needle roller), topical. Conditions: 1% (w/v) in WEP442, topical before and after wounding. The text has this: A subject, rolled onto their left forearm with forceful pressure a roller having many tiny stainless steel needles 1 mm in length, which penetrated through the epidermis causing sharp pain as well as punctate bleeding.

Another data set has as its system psoriatic arthritis. Kind of data set: Example 73: analgesic effect on psoriatic arthritis of hands, fingers and ankles, topical. Conditions: 0.5% (w/v) in WEP442, topical. The text has this:
A subject had psoriatic arthritis of the hands and finger joints and ankle joints for 4 years.

The next data set concerns hallux valgus (bunion). Kind of data set: Example 26: analgesic effect on painful inflammation of hallux valgus, topical. The text has this:
A subject had hallux valgus of the right 1st metatarsal-proximal phalangeal joint for a duration of 5-6 years. Pain in the joint was episodic and associated with inflammation. […] A second application of the solution was made that evening, even though there was no pain. […] Such improvement lasted over the next 2 weeks.

A further data set concerns intense headaches. Kind of data set: Example 33: analgesic effect on recurring headaches, topical. As to conditions: 0.8% (w/v) in EP73, topical. As to the method:
A subject with intense headaches after several hours of using a computer in their work as a real estate agent, topically applied to the forehead and temporal areas a composition containing 0.8% (w/v) of N-Ac-Tyr-Pro-Phe-Phe-NH2 (SEQ ID NO: 23)0 in EP73, formulated as described in Example 2. […] Such headaches, occurring 1-2 times weekly, were treated in the same manner over a 2 month interval, with headache pain being relieved each time.

The test system of data set [2] is chronic arthritic pain of left ankle. Kind of data set: Example 9: analgesic effect on ankle pain, topical. The text has this: A subject had chronic arthritic pain of their left ankle. They were previously treated with prescription corticosteroid injections.
The subject topically applied an anhydrous composition containing 0.5% (w/v) N-Ac-Tyr-Pro-Phe-Phe-NH2 (SEQ ID NO: 23) in EP73, formulated as described in Example 2, at bedtime. The next morning, they observed approximately 90% improvement of pain. The subject topically re-applied the same composition at bedtime. The following entire day, they had about 95% pain improvement.

Another data set deals with knee pain. As to the kind of experiment: Example 42: analgesic effect on knee pain following twisting of leg, topical. Conditions: 1% (w/v) in WEP442, topical. The text has this: A subject, twisted their left leg during work on building construction, causing substantial pain in the left knee. The pain persisted into the late evening, preventing them from falling asleep.

The subject of a further data set is TMJ syndrome pain. As to the kind of experiment: Example 41: analgesic effect on TMJ pain, topical. As to conditions: 0.5% (w/v) in WEP442, topical. The text has this:
The same subject, also suffered pain from TMJ syndrome involving the left side joint for about 6 years. Attempts to alleviate the pain, e.g. cushioning mouth pieces worn during the night, failed. […] Increasing longer periods of relief have occurred over 5-6 weeks. They have reported that there was no more pain in the affected joint over a period of about one month.

The test system of data set [3] is osteoarthritis of the knees. Kind of data set: Example 94: osteoarthritic knees, intra-articular injection of N-Ac derivative. As to conditions: approximately 1% (w/v) in water, 1 ml per knee intra-articular. As to the method:
A subject with osteoarthritis of the knees that progressively worsened over the years, evaluated the analgesic effectiveness of many topical preparations of tetrapeptide derivatives of the invention on numerous occasion. After such experiences, they decided to self-inject […] knees with a sterile aqueous preparation of N-Ac-Tyr-Pro-Phe-Phe-NH2, (SEQ ID NO: 23) at a concentration of approximately 1% (w/v) in water. Via the sub-patellar route, each knee was injected with 1 ml of the preparation, containing approximately 10 mg of the tetrapeptide . […] Walking about with the use of a wheeled walker at that time, the subject experienced knee pain, but at a level distinctly lower than earlier days before the injection. This degree of substantially diminished knee pain continued for an additional 16 hours when the return of pain was detected (3+ effect).

A further data set deals with psoriatic knee pain. Kind of data set: Example 66: analgesic effect on psoriatic knee pain, topical. As to conditions: 0.5% (w/v) in WEP442, topical. From the text:
A person with plaque psoriasis of the scalp, elbows and knees for about 10 years had pain in their knees for the past 4-5 years. The knee pain had gradually worsened. […] After hiking for several hours, the knee pain sometimes re-occurred, but it was immediately relieved by topical application of the above solution composition.

For data set [4], the system named is sore subcutaneous lipomas. As to the kind of experiment: Example 35: analgesic effect on soreness of subcutaneous lipomas, topical. As to conditions: 1% (w/v) in WEP442, topical. The text has this:
A subject with many subcutaneous lipomas on their arms, torso and thighs that often become painfully sore after being bumped against objects during the course of daily activities, topically applied to tenderly sore lipomas a composition containing 1% (w/v) N-Ac-Tyr-Pro-Phe-Phe-NH2 (SEQ ID NO: 23) in WEP442. Such applications were repeated multiple times over a period of two months.

Data set [5] deals with acute right temporal nauseating headache. As to the kind of experiment: Example 49: topical treatment of severe right temporal headache. Conditions: 1% (w/v) in WEP442, topical. From the text: They were given, by a nearby companion, a solution composition containing 1% (w/v) of N-Pg-Tyr-Pro-Phe-Phe-NH2 (SEQ ID NO: 44) in WEP442, which they topically applied to the right temporal area, right closed eyelids, entire forehead and right eyebrow.

In a further data set the test system is right shoulder pain. Kind of data set: Example 77: analgesic effect on pain from shoulder strain, topical. As to conditions: 0.5% (w/v) in WEP442, topical. As to the method:
A subject, presented with right shoulder pain for a duration of 5 days, which developed after carrying a very heavy grocery bag for several city blocks. The pain was increased by their attempts to lift their arm to an elevated position, and further increased from rotational arm movements. […] Such relief lasted for about 6 hours, at which time re-application provided the same relief.

In another data set the test system is discomfort of hands. As to the kind of experiment: Example 63: analgesic effect on wrist and hand pain, topical. As to conditions: 0.5% (w/v) in WEP442, topical. The text has this:
A person hairdresser, after several hours of styling hair, experienced substantial discomfort on their hands that interfered with further pursuit of their work.

For the next data set, the system named is restless leg syndrome. Kind of data set: Example 75: treatment of restless leg syndrome, topical. Conditions: 1% (w/v) in WEP442, topical to legs after an episode. From the text: Restless leg syndrome (RLS) is a disorder in which involuntary movements of the legs occur during the sleeping hours. A subject, presented with RLS for a duration of about 4 years. The disorder in the subject had not responded to therapy with opiates, nor to a benzodiazepine medication.

On to `CC(=O)N[C@@H](Cc1ccc(O)cc1)C(=O)N1CCC[C@H]1C(=O)N[C@@H](Cc1ccccc1)C(=O)N[C@@H](Cc1ccccc1)C(N)=O` [N-Ac-Tyr-Pro-Phe-Phe-NH2], for which, in data set [1], the “effect on sharp punctate pain” value is “did not prevent nor relieve the sharp punctate pain”. Besides, the “duration of pain relief” value with psoriatic arthritis was “approximately 6 hours”; in the data set with TMJ syndrome pain, “more than 8 hours”; in the data set with psoriatic knee pain it was “about 6 hours”. Besides, the pain relief entry in the data set with psoriatic arthritis is “almost complete relief of pain”; in the data set on hallux valgus (bunion) (1% (w/v) in WEP442, topical), “all pain was gone”; in the data set on intense headaches, “Complete headache relief”; in the data set with knee pain it was “complete relief of pain”; in the data set on TMJ syndrome pain it was “rapidly and completely alleviated pain”; in the data set with psoriatic knee pain, “relieved their knee pain”. In the data set with hallux valgus (bunion) (1% (w/v) in WEP442, morning after second application), the “erythema, swelling and pain” value was “the erythema was gone, the swelling had subsided, and there was no pain”. Further, in the data set on hallux valgus (bunion) (1% (w/v) in WEP442, topical), the duration of improvement was determined as 2 weeks. The “time to pain relief” value in the data set with hallux valgus (bunion) (1% (w/v) in WEP442, topical) is at most 15 min; in the data set with intense headaches it was at most 1 min; in the data set with knee pain, “less than 1 minute”. The pain improvement entry in data set [2] (0.5% (w/v) in EP73, re-applied at bedtime, following entire day) was “about 95%”. For the same compound, the improvement of pain entry in data set [2] (0.5% (w/v) in EP73, topical at bedtime, next morning) is reported as “approximately 90%”. For the same compound, the recurrence entry with knee pain was “pain free the next morning and thereafter”. The analgesic effect grade in [3] was 3+ (3+ (75%): complete relief of pain for less than 4 hours). In data set [3], the “discomfort from the injection” value was “Mild discomfort from the injection”. The “additional duration of substantially diminished knee pain” value in data set [3] (after the first 24 hours) turned out to be 16 h. Further, the knee pain result in [3] (over the ensuing 24 hours) is “the knee pain gradually diminished”. In [4], the time to relief was at most 1 min. The relief of soreness entry in data set [4] (repeated over two months) is “relieved all feelings of soreness”.
With “N-Pg-Tyr-Pro-Phe-Phe-NH2 ([pGlu]YPFF-NH2; SMILES NC(=O)[C@H](Cc1ccccc1)NC(=O)[C@H](Cc1ccccc1)NC(=O)[C@@H]1CCCN1C(=O)[C@H](Cc1ccc(O)cc1)NC(=O)[C@@H]1CCC(=O)N1)”, in [5], the pain relief result is “the headache subsided completely”, the recurrence result is reported as “did not return” and the “time to pain relief” value was 3 to 5 min. For the same compound, in the data set on right shoulder pain, the “duration of pain relief” value is given as “about 6 hours” and the pain relief result is recorded as “rapid, complete relief of pain”. The relief of discomfort entry with discomfort of hands is on record as “complete relief”. In addition, the involuntary leg movement result with restless leg syndrome is given as “completely prevented further involuntary leg movement”.
